Data from the NIST ThermoML archive (doi:10.1021/je8007759).

Assay: xn = mol fraction of the nth substance listed

CC1CCC(=O)O1 (stereo not given) [γ-valerolactone] + O=C=O
mass density [kg/m3], Fluid (supercritical or subcritical phases), Pycnometric method
Conditions | 308.2 K | 313.2 K
7520 kPa, x1 = 0.1 | 928 | –
7560 kPa, x1 = 0.05 | 838 | –
7630 kPa, x1 = 0.01 | 665 | –
7630 kPa, x1 = 0.05 | 842 | –
7640 kPa, x1 = 0.025 | 781 | –
7650 kPa, x1 = 0.01 | 669 | –
7670 kPa, x1 = 0.01 | 673 | –
7670 kPa, x1 = 0.1 | 932 | –
7690 kPa, x1 = 0.01 | 677 | –
7710 kPa, x1 = 0.05 | 845 | –
7710 kPa, x1 = 0.15 | 979 | –
7720 kPa, x1 = 0.01 | 681 | –
7720 kPa, x1 = 0.025 | 786 | –
7750 kPa, x1 = 0.01 | 685 | –
7790 kPa, x1 = 0.01 | 690 | –
7810 kPa, x1 = 0.1 | 935 | –
7820 kPa, x1 = 0.025 | 792 | –
7830 kPa, x1 = 0.01 | 694 | –
7850 kPa, x1 = 0.05 | 850 | –
7870 kPa, x1 = 0.01 | 698 | –
7910 kPa, x1 = 0.01 | 703 | –
7930 kPa, x1 = 0.025 | 798 | –
7970 kPa, x1 = 0.01 | 710 | –
8050 kPa, x1 = 0.01 | 717 | –
8060 kPa, x1 = 0.025 | 804 | –
8110 kPa, x1 = 0.05 | 855 | –
8150 kPa, x1 = 0.01 | 724 | –
8170 kPa, x1 = 0.025 | 809 | –
8200 kPa, x1 = 0.15 | – | 962
8230 kPa, x1 = 0.15 | 982 | –
8300 kPa, x1 = 0.01 | 734 | 547
8310 kPa, x1 = 0.01 | – | 557
8320 kPa, x1 = 0.01 | – | 561
8330 kPa, x1 = 0.01 | – | 565
8340 kPa, x1 = 0.01 | – | 568
8340 kPa, x1 = 0.05 | – | 809
8340 kPa, x1 = 0.1 | 942 | –
8350 kPa, x1 = 0.01 | – | 572
8350 kPa, x1 = 0.025 | 815 | –
8370 kPa, x1 = 0.01 | – | 576
8370 kPa, x1 = 0.025 | – | 726
8380 kPa, x1 = 0.01 | – | 581
8380 kPa, x1 = 0.1 | – | 913
8390 kPa, x1 = 0.01 | – | 589
8400 kPa, x1 = 0.05 | 862 | –
8410 kPa, x1 = 0.01 | – | 592
8410 kPa, x1 = 0.025 | – | 730
8420 kPa, x1 = 0.01 | – | 596
8430 kPa, x1 = 0.01 | – | 602
8440 kPa, x1 = 0.01 | – | 606
8450 kPa, x1 = 0.025 | – | 736
8460 kPa, x1 = 0.01 | 744 | 609
8460 kPa, x1 = 0.05 | – | 814
8470 kPa, x1 = 0.01 | – | 612
8480 kPa, x1 = 0.01 | – | 616
8500 kPa, x1 = 0.01 | – | 619
8510 kPa, x1 = 0.025 | – | 740
8520 kPa, x1 = 0.01 | – | 623
8520 kPa, x1 = 0.1 | – | 916
8530 kPa, x1 = 0.01 | – | 627
8530 kPa, x1 = 0.025 | 822 | –
8550 kPa, x1 = 0.025 | – | 745
8560 kPa, x1 = 0.01 | – | 630
8580 kPa, x1 = 0.01 | – | 634
8580 kPa, x1 = 0.15 | – | 965
8600 kPa, x1 = 0.01 | – | 638
8620 kPa, x1 = 0.025 | – | 750
8630 kPa, x1 = 0.01 | – | 641
8650 kPa, x1 = 0.01 | – | 645
8670 kPa, x1 = 0.01 | 754 | –
8670 kPa, x1 = 0.05 | – | 820
8680 kPa, x1 = 0.01 | – | 649
8680 kPa, x1 = 0.1 | 946 | –
8700 kPa, x1 = 0.025 | 827 | 755
8720 kPa, x1 = 0.01 | – | 653
8750 kPa, x1 = 0.01 | – | 657
8750 kPa, x1 = 0.05 | 869 | –
8760 kPa, x1 = 0.1 | – | 920
8780 kPa, x1 = 0.01 | – | 661
8780 kPa, x1 = 0.025 | – | 760
8810 kPa, x1 = 0.01 | – | 665
8830 kPa, x1 = 0.15 | 985 | –
8850 kPa, x1 = 0.01 | – | 669
8880 kPa, x1 = 0.025 | – | 765
8880 kPa, x1 = 0.05 | – | 826
8890 kPa, x1 = 0.01 | – | 673
8910 kPa, x1 = 0.01 | 765 | –
8940 kPa, x1 = 0.01 | – | 677
8940 kPa, x1 = 0.025 | 833 | –
8960 kPa, x1 = 0.025 | – | 771
8990 kPa, x1 = 0.01 | – | 681
9000 kPa, x1 = 0.1 | – | 923
9040 kPa, x1 = 0.01 | – | 686
9060 kPa, x1 = 0.025 | – | 775
9070 kPa, x1 = 0.15 | – | 969
9100 kPa, x1 = 0.01 | – | 690
9140 kPa, x1 = 0.05 | 875 | –
9150 kPa, x1 = 0.01 | – | 694
9180 kPa, x1 = 0.01 | 775 | –
9180 kPa, x1 = 0.025 | 840 | 781
9180 kPa, x1 = 0.05 | – | 835
9200 kPa, x1 = 0.01 | – | 698
9280 kPa, x1 = 0.01 | – | 703
9280 kPa, x1 = 0.1 | – | 926
9310 kPa, x1 = 0.025 | – | 786
9340 kPa, x1 = 0.01 | – | 708
9380 kPa, x1 = 0.1 | 953 | –
9400 kPa, x1 = 0.15 | 988 | –
9410 kPa, x1 = 0.025 | 845 | –
9430 kPa, x1 = 0.01 | – | 712
9440 kPa, x1 = 0.05 | – | 841
9450 kPa, x1 = 0.025 | – | 792
9500 kPa, x1 = 0.01 | 787 | 717
9510 kPa, x1 = 0.05 | 881 | –
9550 kPa, x1 = 0.1 | – | 929
9590 kPa, x1 = 0.01 | – | 721
9590 kPa, x1 = 0.025 | – | 798
9670 kPa, x1 = 0.15 | – | 972
9680 kPa, x1 = 0.01 | – | 727
9700 kPa, x1 = 0.025 | 852 | –
9710 kPa, x1 = 0.05 | – | 847
9780 kPa, x1 = 0.025 | – | 803
9880 kPa, x1 = 0.01 | – | 736
9880 kPa, x1 = 0.1 | – | 932
9890 kPa, x1 = 0.01 | 798 | –
9970 kPa, x1 = 0.025 | – | 810
9980 kPa, x1 = 0.15 | 991 | –
10000 kPa, x1 = 0.1 | 958 | –
10030 kPa, x1 = 0.05 | – | 852
10120 kPa, x1 = 0.01 | – | 746
10180 kPa, x1 = 0.025 | – | 815
10180 kPa, x1 = 0.1 | – | 936
10310 kPa, x1 = 0.15 | – | 976
10350 kPa, x1 = 0.01 | 810 | –
10370 kPa, x1 = 0.1 | – | 938
10390 kPa, x1 = 0.01 | – | 755
10390 kPa, x1 = 0.05 | – | 859
10400 kPa, x1 = 0.025 | – | 821
10540 kPa, x1 = 0.1 | – | 939
10620 kPa, x1 = 0.15 | – | 978
10630 kPa, x1 = 0.025 | – | 827
10680 kPa, x1 = 0.01 | – | 767
10720 kPa, x1 = 0.15 | 995 | –
10750 kPa, x1 = 0.05 | – | 865
11040 kPa, x1 = 0.1 | 967 | –
11360 kPa, x1 = 0.15 | 999 | –
11550 kPa, x1 = 0.1 | 970 | –
11980 kPa, x1 = 0.15 | 1002 | –
12070 kPa, x1 = 0.1 | 974 | –
12550 kPa, x1 = 0.1 | 978 | –
12950 kPa, x1 = 0.15 | 1006 | –
13110 kPa, x1 = 0.1 | 981 | –
13620 kPa, x1 = 0.15 | 1009 | –
13640 kPa, x1 = 0.1 | 984 | –
14250 kPa, x1 = 0.1 | 989 | –
14410 kPa, x1 = 0.15 | 1013 | –
14770 kPa, x1 = 0.1 | 992 | –
15180 kPa, x1 = 0.15 | 1016 | –
16060 kPa, x1 = 0.15 | 1020 | –
16850 kPa, x1 = 0.15 | 1023 | –

308.2 K, Liquid, high pressure variable cell
Conditions | mass density [kg/m3]
x1 = 0.01 | 663
x1 = 0.025 | 777
x1 = 0.05 | 834
x1 = 0.1 | 920
x1 = 0.15 | 972
